From patent publication US20240415819A1, “MACROCYCLIC COMPOUNDS AS PROTEASOME SUBUNIT BETA TYPE-5 INHIBITORS” (Lead Discovery Center GmbH, priority 2021, published 2024)

Key:
[1] = system: RPMI 8226 (B lymphocyte cell line, multiple myeloma); assay: 48 hr CTG viability assay, RPMI 8226; assay type: cell-based; conditions: Homo sapiens, RPMI-8226; 48 hr CTG; read-out: RPMI-8226 IC50
Experimental: (§1) A viability assay was conducted for 48 hours to evaluate the inhibition of cancer cell growth by proteasome inhibitors. Briefly, the candidate cell line was plated with a 96-well plate following density of cells, respectively. 6×10^3 Cells/well for A2780 (human ovarian cancer cell line) and MDA-MB-468 (breast carcinoma), 8×10^3 Cells/well for Hs746T (human gastric carcinoma cell line), 1.1×10^4 Cells/well for MM1 S and RPMI 8226 (multiple myeloma). After 24 hours, the cells were treated with various concentrations of the compound (ranging from 0.0015 uM to 10 uM). […] After 48 hours of incubation at 37° C., 5% CO2 incubator, cells were analyzed for viability using the CellTiter-Glo Luminescent Cell Viability assay (Promega, Cat #G7570). All viability assays were performed in duplicate and Luminescence was read using an Envision (Perkin Elmer, USA). Data were analyzed using XLfit software. […] (human gastric carcinoma cell line), MM1 S (B lymphoblast cell line), and RPMI 8226 (B lymphocyte cell line, multiple myeloma). Inhibition is indicated as IC50 [nM] (“-”=not measured).

[2] = system: Hs 746T (human gastric carcinoma cell line); assay: 48 hr CTG viability assay, Hs 746T; assay type: cell-based; conditions: Hs746T, 48 hr CTG, read-out: Hs 746T IC50
Experimental: as §1

[3] = system: A549 (human lung carcinoma cell line); assay: Glo assay of A549 cells (Table 3; ProteasomeGlo plating scheme); assay type: cell-based; conditions: Homo sapiens; A549 cells; read-out: PGLo A549
Summary of the method: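 After acoustic compound transfer, plates incubate 105 min (37° C., 5% CO2). Proteasome-Glo reagent containing Suc-LLVY-Glo substrate is added, plates are shaken, then luminescence is measured after 10-15 min to derive IC50 [nM]. Staurosporine and DMSO serve as controls.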

[4] = molecular target: T1, β5 subunit of the human immunoproteasome (IPS) (Homo sapiens, UniProt P28062); assay: β5 inhibition assay, human immunoproteasome (Suc-LLVY-AMC); assay type: biochemical; conditions: IC50 class, Suc-LLVY-AMC substrate
T1 construct: purchased Boston Biochem E-370
Summary of the method: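 Human immunoproteasome (1 nM final) was preincubated 10 min at RT with compound in 100 mM HEPES pH 7.5, 50 mM NaCl, 0.02% SDS, 1 mM DTT. Suc-LLVY-AMC (22.6 μM final) was then added for 4 h at RT in the dark. After stopping with 1 μM bortezomib, AMC fluorescence was read (ex 355/em 460 nm).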

[5] = system: MM1 S (B lymphoblast cell line); assay: 48 hr CTG viability assay, MM1S; assay type: cell-based; conditions: Homo sapiens, 48 hr CTG, read-out: MM1S IC50
Experimental: as §1

[6] = molecular target: T2, β5 subunit of the human constitutive proteasome (CPS) (Homo sapiens, UniProt P28074); assay: β5 inhibition assay, human constitutive proteasome (Suc-LLVY-AMC); assay type: biochemical; conditions: IC50 class, Suc-LLVY-AMC substrate
T2 construct: purchased Boston Biochem E-360
Experimental: The enzymatic activity of the β5 subunit of the human constitutive proteasome (CPS) is analyzed. In another assay, which differs from the assay of the human constitutive proteasome only in using the human immunoproteasome (IPS) the enzymatic activity of the β5 subunit of the human immunoproteasome (IPS) is analyzed. […] Inhibition is indicated as IC50 [nM] (“-”=not measured).

Compound | IC50 [1] [µM] | IC50 [2] [µM] | IC50 [3] [µM] | IC50 [4] [µM] | IC50 [5] [µM] | IC50 [6] [µM]
Cc1ccc2cc1CNC(=O)[C@H](CCc1ccccc1)NC(=O)[C@@H](NC(=O)CCNCc1ccccc1)CC(=O)N1CCCC(CCO2)C1 (stereo partly drawn) [Compound 647, 3-(benzylamino)-N-((9S,12S)-5^4-methyl-8,11,14-trioxo-9-phenethyl-4-oxa-7,10-diaza-1(3,1)-piperidina-5(1,3)-benzenacyclotetradecaphane-12-yl)propanamide] | < 0.1 | < 0.1 | < 0.1 | < 0.1 | < 0.1 | < 0.1
Cc1ccc2cc1CNC(=O)[C@H](CCc1ccccc1)NC(=O)[C@@H](NC(=O)CCNC(=O)c1ccc(C3CCCCC3)cc1)CC(=O)N1CCCC(CCO2)C1 (stereo partly drawn) [Compound 656, 4-cyclohexyl-N-(3-(((9S,12S)-5^4-methyl-8,11,14-trioxo-9-phenethyl-4-oxa-7,10-diaza-1(3,1)-piperidina-5(1,3)-benzenacyclotetradecaphane-12-yl)amino)-3-oxopropyl)benzamide] | < 0.1 | < 0.1 | < 0.1 | < 0.1 | < 0.1 | < 0.1
Cc1ccc2cc1CNC(=O)[C@H](CCc1ccccc1)NC(=O)[C@@H](NC1CCC1)CC(=O)N1CCCC(CCO2)C1 (stereo partly drawn) [Compound 717, (9S,12S)-12-(cyclobutylamino)-5^4-methyl-9-phenethyl-4-oxa-7,10-diaza-1(3,1)-piperidina-5(1,3)-benzenacyclotetradecaphane-8,11,14-trione] | 0.1 to 0.5 | 0.1 to 0.5 | < 0.1 | < 0.1 | 0.1 to 0.5 | < 0.1
Cc1ccc2cc1CNC(=O)[C@H](CCc1ccccc1)NC(=O)[C@@H](NC(=O)N1CCc3cnccc31)CC(=O)N1CCCC(CCO2)C1 (stereo partly drawn) [Compound 703, N-((9S,12S)-5^4-methyl-8,11,14-trioxo-9-phenethyl-4-oxa-7,10-diaza-1(3,1)-piperidina-5(1,3)-benzenacyclotetradecaphane-12-yl)-2,3-dihydro-1H-pyrrolo[3,2-c]pyridine-1-carboxamide] | < 0.1 | < 0.1 | < 0.1 | < 0.1 | < 0.1 | < 0.1
Cc1ccc2cc1CNC(=O)[C@H](CCc1ccccc1)NC(=O)[C@@H](NCC(C)(C)N)CC(=O)N1CCCC(CCO2)C1 (stereo partly drawn) [Compound 727, (9S,12S)-12-((2-amino-2-methylpropyl)amino)-5^4-methyl-9-phenethyl-4-oxa-7,10-diaza-1(3,1)-piperidina-5(1,3)-benzenacyclotetradecaphane-8,11,14-trione] | 0.1 to 0.5 | 1 to 5 | 0.1 to 0.5 | < 0.1 | 0.5 to 1 | < 0.1
Cc1ccc2cc1CNC(=O)[C@H](CCc1ccccc1)NC(=O)[C@@H](NC(=O)CCOc1ccccc1)CC(=O)N1CCCC(CCO2)C1 (stereo partly drawn) [Compound 591, N-((9S,12S)-5^4-methyl-8,11,14-trioxo-9-phenethyl-4-oxa-7,10-diaza-1(3,1)-piperidina-5(1,3)-benzenacyclotetradecaphane-12-yl)-3-phenoxypropanamide] | < 0.1 | < 0.1 | < 0.1 | < 0.1 | < 0.1 | < 0.1
Cc1ccc2cc1CNC(=O)[C@H](CCc1ccncc1)NC(=O)[C@@H](NC(=O)Cc1ccc(N)cc1C)CC(=O)N1CCCC(CCO2)C1 (stereo partly drawn) [Compound 654, 2-(4-amino-2-methylphenyl)-N-((9S,12S)-5^4-methyl-8,11,14-trioxo-9-(2-(pyridin-4-yl)ethyl)-4-oxa-7,10-diaza-1(3,1)-piperidina-5(1,3)-benzenacyclotetradecaphane-12-yl)acetamide] | < 0.1 | < 0.1 | < 0.1 | < 0.1 | < 0.1 | < 0.1
Cc1ccc2cc1CNC(=O)C(CCc1ccncc1)NC(=O)[C@@H](NC(=O)Cc1ccc(N)cc1C)CC(=O)N1CCCC(CCO2)C1 (stereo partly drawn) [Compound 678, 2-(4-amino-2-methylphenyl)-N-((12S)-5^4-methyl-8,11,14-trioxo-9-(2-(pyridin-4-yl)ethyl)-4-oxa-7,10-diaza-1(3,1)-piperidina-5(1,3)-benzenacyclotetradecaphane-12-yl)acetamide] | < 0.1 | < 0.1 | < 0.1 | < 0.1 | < 0.1 | < 0.1
Cc1ccc2cc1CNC(=O)[C@H](CCc1ccccc1)NC(=O)[C@@H](NCC(C)(C)CO)CC(=O)N1CCCC(CCO2)C1 (stereo partly drawn) [Compound 690, (9S,12S)-12-((3-hydroxy-2,2-dimethylpropyl)amino)-5^4-methyl-9-phenethyl-4-oxa-7,10-diaza-1(3,1)-piperidina-5(1,3)-benzenacyclotetradecaphane-8,11,14-trione] | < 0.1 | < 0.1 | < 0.1 | < 0.1 | < 0.1 | < 0.1
CC(=O)N[C@H]1CC(=O)N2CCCC(CCOc3ccc(C)c(c3)CNC(=O)[C@H](C3Cc4ccccc4C3)NC1=O)C2 (stereo partly drawn) [Compound 685, N-((9S,12S)-9-(2,3-dihydro-1H-inden-2-yl)-5^4-methyl-8,11,14-trioxo-4-oxa-7,10-diaza-1(3,1)-piperidina-5(1,3)-benzenacyclotetradecaphane-12-yl)acetamide] | < 0.1 | < 0.1 | < 0.1 | < 0.1 | < 0.1 | < 0.1
Cc1ccc2cc1CNC(=O)[C@H](CCc1ccccc1)NC(=O)[C@@H](NC(=O)CCOCC1CCC1)CC(=O)N1CCCC(CCO2)C1 (stereo partly drawn) [Compound 628, 3-(cyclobutylmethoxy)-N-((9S,12S)-5^4-methyl-8,11,14-trioxo-9-phenethyl-4-oxa-7,10-diaza-1(3,1)-piperidina-5(1,3)-benzenacyclotetradecaphane-12-yl)propanamide] | < 0.1 | < 0.1 | < 0.1 | < 0.1 | < 0.1 | < 0.1
Cc1ccc2cc1CNC(=O)[C@H](CCc1ccccc1)NC(=O)[C@@H](NS(=O)(=O)Cc1ccccc1F)CC(=O)N1CCCC(CCO2)C1 (stereo partly drawn) [Compound 636, 1-(2-fluorophenyl)-N-((9S,12S)-5^4-methyl-8,11,14-trioxo-9-phenethyl-4-oxa-7,10-diaza-1(3,1)-piperidina-5(1,3)-benzenacyclotetradecaphane-12-yl)methanesulfonamide] | < 0.1 | < 0.1 | < 0.1 | < 0.1 | < 0.1 | < 0.1
Cc1ccc2cc1CNC(=O)[C@H](CCc1ccccc1)NC(=O)[C@@H](NC(=O)CCO[C@H]1C[C@@H]3CC[C@H]1C3)CC(=O)N1CCCC(CCO2)C1 [Compound 642, 3-(((1S,2S,4R)-bicyclo[2.2.1]heptan-2-yl)oxy)-N-((9S,12S)-5^4-methyl-8,11,14-trioxo-9-phenethyl-4-oxa-7,10-diaza-1(3,1)-piperidina-5(1,3)-benzenacyclotetradecaphane-12-yl)propanamide] | < 0.1 | < 0.1 | < 0.1 | < 0.1 | < 0.1 | < 0.1
Cc1ccc2cc1CNC(=O)[C@H](CCc1ccccc1)NC(=O)[C@@H](NC(=O)CCN1CCC3(CCCC3)C1)CC(=O)N1CCCC(CCO2)C1 (stereo partly drawn) [Compound 652, N-((9S,12S)-5^4-methyl-8,11,14-trioxo-9-phenethyl-4-oxa-7,10-diaza-1(3,1)-piperidina-5(1,3)-benzenacyclotetradecaphane-12-yl)-3-(2-azaspiro[4.4]nonan-2-yl)propanamide] | < 0.1 | < 0.1 | < 0.1 | < 0.1 | < 0.1 | < 0.1
